Laboratory results taken from patent US20260083865A1, “PROSTATE SPECIFIC MEMBRANE ANTIGEN (PSMA) LIGANDS AND USE THEREOF” (priority 2022, published 2026).
Numbered stars: 1 amine (or outer) side, 2 acyl side, 3 side chain; on linkers, the order of the positions; unused ones are H or OH. Bridge positions count the residues as written; N and C are the ends. Square brackets hold non-standard residues; d marks the D form. Side chains are listed from the residue outwards. Peptide text beside a SMILES is read from it. * marks the point of attachment. Acetyl(1-DOTA-4-piperidyl) = O=C(O)CN1CCN(CC(=O)O)CCN(CC(=O)N2CCC(CC(=O)*)CC2)CCN(CC(=O)O)CC1; DOTA = O=C(O)CN1CCN(CC(=O)O)CCN(CC(=O)*)CCN(CC(=O)O)CC1; Phe(4-Cl) = N[C@@H](Cc1ccc(Cl)cc1)C(=O)O; Pro(4R-NH2) = N[C@H]1CN[C@H](C(=O)O)C1; Arg(Me) = CNC(=N)NCCC[C@H](N)C(=O)O; αMeF = C[C@](N)(Cc1ccccc1)C(=O)O; X1 = O=C(CC1CCN([*:1])CC1)[*:2]; Cit = NC(=O)NCCC[C@H](N)C(=O)O; Lys(Me) = CNCCCC[C@H](N)C(=O)O; Tle = CC(C)(C)[C@H](N)C(=O)O; 4Amb = NCc1ccc(C(=O)O)cc1; Aib = CC(C)(N)C(=O)O; CH2 = C([*:1])[*:2]

Tests used:
[1] = target: T1, Fc-fusion protein of human PSMA (hPSMA-Fc) (Homo sapiens, UniProt Q04609); test: Surface plasmon resonance assay (Biacore T200, single cycle kinetic); format: binding; conditions: pKD category for PSMA SPR activity assay, hPSMA-Fc, 25° C.; read-out: pKD CAT (converted)
T1 construct: purchased Acro Biosystems PSA-H5264
Outline: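 hPSMA-Fc was captured (~1000 RU) on an Fc-binding-peptide CM5 chip, and compounds were run in single cycle kinetic mode at 25° C in HBST with 0.1% DMSO. Double-blank-corrected sensorgrams were fitted to a 1:1 Langmuir model to give KD, reported as pKD.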

[2] = target: T2, PSMA-expressing C4-2 cells (Homo sapiens, UniProt Q04609); test: FACS binding assay (competition with 50 nM PSM-0183); conditions: pIC50 category of FACS binding, C4-2 cells; read-out: pIC50 [C4-2] CAT (converted)
T2 construct: PSMA-expressing C4-2 cells (ATCC, Cat. No. CRL-3314) were cultured in RPMI-1640; host or cells: C4-2 cells
Outline: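 C4-2 cells were incubated 1 h at 4 °C with 50 nM AF488-labelled peptide PSM-0183 plus increasing test compound concentrations, then washed twice in ice-cold buffer. Median fluorescence in the AF488 channel was read by flow cytometry. IC50/pIC50 was derived by 4PL fitting of MFI versus concentration.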

T2 sequence (Q04609 whole entry): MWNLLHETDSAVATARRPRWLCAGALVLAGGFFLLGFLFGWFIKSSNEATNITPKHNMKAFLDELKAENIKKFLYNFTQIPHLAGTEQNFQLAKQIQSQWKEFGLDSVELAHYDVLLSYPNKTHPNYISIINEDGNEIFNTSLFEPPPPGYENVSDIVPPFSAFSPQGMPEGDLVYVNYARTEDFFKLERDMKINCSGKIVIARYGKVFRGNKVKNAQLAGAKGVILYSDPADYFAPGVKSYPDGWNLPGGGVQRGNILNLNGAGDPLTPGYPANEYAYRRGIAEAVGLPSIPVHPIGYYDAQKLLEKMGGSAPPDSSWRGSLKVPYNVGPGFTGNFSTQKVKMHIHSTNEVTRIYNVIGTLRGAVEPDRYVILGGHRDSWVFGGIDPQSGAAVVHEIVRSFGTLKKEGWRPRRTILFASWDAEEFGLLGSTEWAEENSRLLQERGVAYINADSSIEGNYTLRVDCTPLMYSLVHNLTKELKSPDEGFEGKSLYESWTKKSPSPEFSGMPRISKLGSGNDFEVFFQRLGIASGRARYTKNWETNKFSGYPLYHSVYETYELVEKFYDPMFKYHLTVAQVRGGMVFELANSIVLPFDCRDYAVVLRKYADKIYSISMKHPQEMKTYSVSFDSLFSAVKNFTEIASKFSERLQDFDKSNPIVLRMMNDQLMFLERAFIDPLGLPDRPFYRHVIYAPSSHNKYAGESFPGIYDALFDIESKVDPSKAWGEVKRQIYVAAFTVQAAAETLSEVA
T1 sequence (Q04609 44-750 limits assumed): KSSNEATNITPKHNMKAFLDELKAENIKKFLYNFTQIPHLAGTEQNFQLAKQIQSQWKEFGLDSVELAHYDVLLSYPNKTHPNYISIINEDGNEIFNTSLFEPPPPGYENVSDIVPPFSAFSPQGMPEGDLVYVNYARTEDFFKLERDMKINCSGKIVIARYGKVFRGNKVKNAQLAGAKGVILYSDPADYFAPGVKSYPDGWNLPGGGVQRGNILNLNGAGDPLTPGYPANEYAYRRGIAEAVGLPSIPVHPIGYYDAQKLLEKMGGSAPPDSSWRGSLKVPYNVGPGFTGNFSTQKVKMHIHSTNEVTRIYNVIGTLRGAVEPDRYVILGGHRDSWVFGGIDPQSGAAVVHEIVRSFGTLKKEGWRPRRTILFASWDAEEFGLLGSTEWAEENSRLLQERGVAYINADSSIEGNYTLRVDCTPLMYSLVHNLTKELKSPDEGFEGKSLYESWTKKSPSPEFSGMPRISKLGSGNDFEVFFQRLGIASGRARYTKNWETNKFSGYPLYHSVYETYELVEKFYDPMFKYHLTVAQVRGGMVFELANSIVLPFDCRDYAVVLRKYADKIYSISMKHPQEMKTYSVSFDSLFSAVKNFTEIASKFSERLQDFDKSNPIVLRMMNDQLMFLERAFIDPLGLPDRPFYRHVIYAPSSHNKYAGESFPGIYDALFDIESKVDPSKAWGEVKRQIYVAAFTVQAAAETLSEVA

Kd [1] [nM]	IC50 [2] [nM]	Compound
12.6 to 126	> 3160	CC(=O)N[C@H](C(=O)N[C@@H](C)C(=O)N[C@@](C)(Cc1ccccc1)C(=O)N[C@H]1CSSC[C@@H](C(=O)N[C@H](C(=O)N[C@H](C(N)=O)[C@@H](C)O)C(C)(C)C)NC(=O)[C@H](CC(N)=O)NC(=O)C(C)(C)NC(=O)[C@H](CCCNC(=N)N)NC(=O)[C@H](CCCCN)NC1=O)[C@@H](C)O [PSM-0414, Ac-Thr-Ala-Amf-[Cys-Lys-Arg-Aib-Asn-Cys]-Tle-Thr-NH2] (Ac-TA[αMeF]CKR[Aib]NC[Tle]T-NH2; disulfide 4-9)
12.6 to 126	< 200	CC(=O)N[C@H](C(=O)NC(C)(C)C(=O)N[C@@H](Cc1ccccc1)C(=O)N[C@H]1CSSC[C@@H](C(=O)N[C@H](C(=O)N[C@H](C(N)=O)[C@@H](C)O)C(C)(C)C)NC(=O)[C@H](CC(N)=O)NC(=O)[C@H](CCCCNC(=O)CC2CCN(C(=O)CN3CCN(CC(=O)O)CCN(CC(=O)O)CCN(CC(=O)O)CC3)CC2)NC(=O)[C@H](CCCNC(=N)N)NC(=O)[C@H](CCCCN)NC1=O)[C@@H](C)O [PSM-0415, Ac-Thr-Aib-Phe-[Cys-Lys-Arg-Lys(DOTA-Cmp)-Asn-Cys]-Tle-Thr-NH2] (Ac-T[Aib]FCKRK(Acetyl(1-DOTA-4-piperidyl))NC[Tle]T-NH2; disulfide 4-9)
< 12.6	< 200	CC(=O)N[C@H](C(=O)NC(C)(C)C(=O)N[C@@H](Cc1ccccc1)C(=O)N[C@H]1CSSC[C@@H](C(=O)N[C@H](C(=O)N[C@H](C(N)=O)[C@@H](C)O)C(C)(C)C)NC(=O)[C@H](CC(N)=O)NC(=O)[C@H](CCCCNC(=O)c2ccc(CNC(=O)CN3CCN(CC(=O)O)CCN(CC(=O)O)CCN(CC(=O)O)CC3)cc2)NC(=O)[C@H](CCCNC(=N)N)NC(=O)[C@H](CCCCN)NC1=O)[C@@H](C)O [PSM-0419, Ac-Thr-Aib-Phe-[Cys-Lys-Arg-Lys(DOTA-Pamb)-Asn-Cys]-Tle-Thr-NH2] (Ac-T[Aib]FCKRK([4Amb-DOTA])NC[Tle]T-NH2; disulfide 4-9)
< 12.6	< 200	CNCCCC[C@@H]1NC(=O)[C@@H](NC(=O)[C@H](Cc2ccc(Cl)cc2)NC(=O)C(C)(C)NC(=O)[C@@H](NC(=O)CC2CCN(C(=O)CN3CCN(CC(=O)O)CCN(CC(=O)O)CCN(CC(=O)O)CC3)CC2)[C@@H](C)O)CSCSC[C@@H](C(=O)N[C@H](C(N)=O)C(C)(C)C)NC(=O)[C@H](CC(N)=O)NC(=O)C(C)(C)NC(=O)[C@H](CCCNC(=N)NC)NC1=O [PSM-0420, DOTA-Cmp-Thr-Aib-Pcf-[Smc-Lys(Me)-Arg(Me)-Aib-Asn-Cys]-Tle-NH2] ({DOTA}-[X1]T[Aib][Phe(4-Cl)]C[Lys(Me)][Arg(Me)][Aib]NC[Tle]-NH2; linker 5-10 via CH2)
126 to 501	200 to 1260	CC(=O)N[C@H](C(=O)NC(C)(C)C(=O)N[C@@H](Cc1ccc(Cl)cc1)C(=O)N[C@H]1CSSC[C@@H](C(=O)N[C@H](CC(C)C)C(=O)N[C@H](C(N)=O)[C@@H](C)O)NC(=O)[C@H](CC(N)=O)NC(=O)C(C)(C)NC(=O)[C@H](CCCNC(N)=O)NC(=O)[C@H](CCCCN)NC1=O)[C@@H](C)O [PSM-0421, Ac-Thr-Aib-Pcf-[Cys-Lys-Cit-Aib-Asn-Cys]-leu-Thr-NH2] (Ac-T[Aib][Phe(4-Cl)]CK[Cit][Aib]NC[dL]T-NH2; disulfide 4-9)
126 to 501	< 200	CC(=O)N[C@H](C(=O)NC(C)(C)C(=O)N[C@@H](Cc1ccccc1)C(=O)N[C@H]1CSSC[C@@H](C(=O)N[C@H](C(=O)N[C@H](C(=O)N[C@@H](CC(=O)O)C(N)=O)[C@@H](C)O)C(C)(C)C)NC(=O)[C@H](CC(N)=O)NC(=O)[C@H](C)NC(=O)[C@H](CCCNC(=N)N)NC(=O)[C@@H]2C[C@@H](N)CN2C1=O)[C@@H](C)O [PSM-0422, Ac-Thr-Aib-Phe-[Cys-Tap-Arg-Ala-Asn-Cys]-Tle-Thr-Asp-NH2] (Ac-T[Aib]FC[Pro(4R-NH2)]RANC[Tle]TD-NH2; disulfide 4-9)
